Holding throughout (type): cell-based
Assay [1] has as its system human multiple myeloma cell line NCI-H929. The experiment in a line: H929 Cell Viability Assay. The settings on record: 48 hr, NCI-H929 cells, Celltiter-Glo, read-out: 48 hr H929 Viability Celltiter-Glo: Mean EC50. The protocol: Plates were incubated at 37° C., 5% CO2 for 48 hours. After 48 hours, Celltiter-Glo® (Promega) was added to each well and luciferase signal was quantified using Tecan Infinite M1000 Pro for cell viability determination.
For chemical structures that include one or more stereoisomers, but are illustrated without indicating stereochemistry, the assay data refers to a mixture of stereoisomers.
A general note: Cellular ATP, detected with luciferase, serves as a proxy for viable cell number.

For assay [2], the system named is HER3-ss+4aa/Gaussia Luciferase. The experiment in a line: Dox-Induced Her3-ss-Gluc Assay. An outline of the steps:
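Compounds, diluted in DMSO/media containing doxycycline, were incubated at 37° C., 5% CO2 with cells seeded one day earlier. The cells stably express HER3-ss+4aa/Gaussia luciferase under T-REx control. Where no stereochemistry is shown, data refer to the mixture of stereoisomers.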

The test system of assay [3] is IL-2-FL/Gaussia Luciferase. Nature of the assay: Dox Induced IL2-FL-Gluc Assay. An outline of the steps: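 Compounds were added together with doxycycline in DMSO/media and incubated at 37° C., 5% CO2. The cells were a stably selected line carrying IL-2-FL/Gaussia luciferase under T-REx inducible control. Structures drawn without stereochemistry were tested as stereoisomer mixtures.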

Assay [4] concerns TNFα-FL/Gaussia Luciferase. Nature of the assay: Dox Induced TNFα-FL-Gluc Assay. An outline of the steps:
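Compounds were added in doxycycline-containing DMSO/media to cells plated the previous day and incubated at 37° C under 5% CO2. These cells stably express a TNFα-FL/Gaussia luciferase cDNA whose expression is under T-REx (Dox-inducible) control, selected with Hygromycin and Blasticidin.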

Assay [5] has as its system PD1-ss+10aa/Gaussia Luciferase. The experiment in a line: Dox-Induced PD1-ss-Gluc Assay. Summed up: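 Compounds, diluted in DMSO/media with doxycycline, were added to cells plated a day earlier and kept at 37° C under 5% CO2. The cells stably express a Gaussia luciferase construct fused to PD1-ss+10aa, induced via the T-REx system. Unassigned stereochemistry means mixture data.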

The test system of assay [6] is human multiple myeloma cell line U266B1. The experiment in a line: U266 Cell Viability Assay. The conditions noted are these: U-266, 48 hr, U266B1 cells, Celltiter-Glo, read-out: 48 hr U266 Viability Celltiter-Glo: Mean EC50. Summed up: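 Viability measured by CellTiter-Glo luciferase signal after 48 h compound exposure (37 °C, 5% CO2) of U266B1 cells in 384-well format. Where stereochemistry is not shown, data refer to the stereoisomer mixture.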

Where [7] appears, read: 24 hr doxycycline induction, 293FRT/TO cells, Gaussia luciferase signal; read-out: 24 hr Dox Inducible Her3(ss + 4)Gluc 293FRT/TO: Mean IC50.
The mark [8] stands for this setting: 24 hr doxycycline induction, 293FRT/TO cells, Gaussia luciferase signal; read-out: 24 hr Dox Inducible IL2FLGIuc 293FRT/TO: Mean IC50.
The mark [9] stands for this setting: 24 hr doxycycline induction, 293FRT/TO cells, Gaussia luciferase signal; read-out: 24 hr Dox Inducible TNFaFLGluc 293FRT/TO: Mean IC50.
[10] abbreviates: 24 hr doxycycline induction, 293FRT/TO cells, Gaussia luciferase signal; read-out: 24 hr Dox Inducible PD1ssGluc 293FRT/TO: Mean IC50.
Setting [11] is: 24 hr, doxycycline-induced, 293FRT/TO cells; read-out: 24 hr Dox Inducible Her3(ss + 4)Gluc 293FRT/TO: Mean IC50.
[12] abbreviates: 24 hr, doxycycline-induced, 293FRT/TO cells; read-out: 24 hr Dox Inducible IL2FLGIuc 293FRT/TO: Mean IC50.
[13] abbreviates: 24 hr, doxycycline-induced, 293FRT/TO cells; read-out: 24 hr Dox Inducible TNFaFLGluc 293FRT/TO: Mean IC50.
The mark [14] stands for this setting: 24 hr, doxycycline-induced, 293FRT/TO cells; read-out: 24 hr Dox Inducible PD1ssGluc 293FRT/TO: Mean IC50.

Read-outs that look alike come from different tables or passages of the source.

In general, EC50 refers to the concentration that produces a half-maximal response. For the molecule `CC(C)(C)[Si](O[C@@H]1C[C@H](c2csc(NC(=O)c3cccn3Cc3ccncc3)n2)N(c2ccccc2)C1)(c1ccccc1)c1ccccc1` [Compound A322], the EC50 in assay [1] was 315 nM; in assay [6], more than 25000 nM. The IC50 in assay [2] (read-out: 24 hr Dox Inducible Her3(ss + 4)Gluc 293FRT/TO: Mean IC50; 24 hr, doxycycline-induced, 293FRT/TO cells) was 9 nM; in assay [3] (read-out: 24 hr Dox Inducible IL2FLGIuc 293FRT/TO: Mean IC50; 24 hr, doxycycline-induced, 293FRT/TO cells), 9 nM; in assay [4] (read-out: 24 hr Dox Inducible TNFaFLGluc 293FRT/TO: Mean IC50; 24 hr, doxycycline-induced, 293FRT/TO cells) it was 14 nM; in assay [5] (read-out: 24 hr Dox Inducible PD1ssGluc 293FRT/TO: Mean IC50; 24 hr, doxycycline-induced, 293FRT/TO cells), 3 nM.
On to `CC(C)OC(C)(C)c1csc(NC(=O)c2cccn2CCCc2ccncc2)n1` [Compound A11, N-(4-(2-isopropoxypropan-2-yl)thiazol-2-yl)-1-(3-(pyridin-4-yl)propyl)-1H-pyrrole-2-carboxamide], for which the EC50 in assay [1] is 8690 nM; in assay [6], more than 25000 nM. The IC50 worked out at 128 nM in assay [2] (setting [7]), 61 nM in assay [3] (setting [8]), 2390 nM in assay [4] (setting [9]) and 115 nM in assay [5] (setting [10]).
For `O=C(Nc1nc([C@@H]2CCCN2c2ccccc2)cs1)c1cccn1Cc1ccncc1` [Compound A276], the EC50 in assay [1] was 19400 nM; in assay [6], more than 25800 nM. The IC50 came out at 859 nM in assay [2] (setting [7]), 1500 nM in assay [3] (setting [8]), 2470 nM in assay [4] (setting [9]) and 287 nM in assay [5] (setting [10]).
As to `O=C(Nc1nc(/C=C/Cc2ccccc2)cs1)c1cccn1CCCc1ccncc1` [Compound A217, N-(4-(3-phenylprop-1-en-1-yl)thiazol-2-yl)-1-(3-(pyridin-4-yl)propyl)-1H-pyrrole-2-carboxamide], the EC50 in assay [1] is more than 21500 nM; in assay [6], more than 25000 nM. In addition, the IC50 in assay [2] (setting [7]) is 425 nM; in assay [3] (setting [8]) it was 943 nM; in assay [4] (setting [9]), 3530 nM; in assay [5] (setting [10]), 245 nM.
As to `CC(=O)N(C)c1ccc(/C=C/c2csc(NC(=O)c3cccn3Cc3ccncc3)n2)cc1` [Compound A245], the EC50 amounted to 9060 nM in assay [1] and 17500 nM in assay [6]. Further, the IC50 in assay [2] (setting [7]) is more than 25000 nM; in assay [3] (setting [8]), 14100 nM; in assay [4] (setting [9]), 22200 nM; in assay [5] (setting [10]) it was 3180 nM.
With `O=C(Nc1nc(CCO)cs1)c1cccn1Cc1ccncc1` [Compound A120], the EC50 in assay [1] and in assay [6] was more than 25000 nM each time. Besides, the IC50 in assay [2] (setting [7]), in assay [3] (setting [8]), in assay [4] (setting [9]) and in assay [5] (setting [10]) was more than 25000 nM in each case.
Turning to `O=C(Nc1nc(/C=C/Cc2ccccc2)cs1)c1cccn1Cc1ccncc1` [Compound A218, N-(4-(3-phenylprop-1-en-1-yl)thiazol-2-yl)-1-(pyridin-4-ylmethyl)-1H-pyrrole-2-carboxamide], the figures for the EC50 in assay [1] and in assay [6] were 17100 nM and more than 25000 nM, respectively. In addition, the IC50 in assay [2] (setting [7]) came out at 315 nM; in assay [3] (setting [8]), 779 nM; in assay [4] (setting [9]), 3030 nM; in assay [5] (setting [10]) it was 131 nM.
In the case of `CC(C)OC(C)(C)c1csc(NC(=O)c2cccn2Cc2ccncc2Br)n1` [Compound A41, 1-((3-bromopyridin-4-yl)methyl)-N-(4-(2-isopropoxypropan-2-yl)thiazol-2-yl)-1H-pyrrole-2-carboxamide], the EC50 in assay [1] was 9520 nM; in assay [6], more than 25000 nM. The IC50 worked out at 2390 nM in assay [2] (setting [7]), 1980 nM in assay [3] (setting [8]), 12000 nM in assay [4] (setting [9]) and 878 nM in assay [5] (setting [10]).
Turning to `O=C(Nc1nc(C2CC2)cs1)c1cccn1Cc1ccncc1` [Compound A51], the EC50 in assay [1] and in assay [6] was more than 25000 nM each time. Besides, the IC50 is 3420 nM in assay [2] (setting [7]), 2980 nM in assay [3] (setting [8]), more than 25000 nM in assay [4] (setting [9]) and 1300 nM in assay [5] (setting [10]).
On to `CC1(C)CCc2sc(NC(=O)c3cccn3Cc3ccncc3)nc21` [Compound A22, N-(4,4-dimethyl-5,6-dihydro-4H-cyclopenta[d]thiazol-2-yl)-1-(pyridin-4-ylmethyl)-1H-pyrrole-2-carboxamide], for which the EC50 in assay [1] and in assay [6] was more than 25000 nM throughout. For the same molecule, the IC50 was 503 nM in assay [2] (setting [7]), 460 nM in assay [3] (setting [8]), 8830 nM in assay [4] (setting [9]) and 271 nM in assay [5] (setting [10]).
`CC(C)OC(C)(C)c1csc(NC(=O)c2cccn2Cc2ccc([N+](=O)[O-])cc2)n1` [Compound A53, N-(4-(2-isopropoxypropan-2-yl)thiazol-2-yl)-1-(4-nitrobenzyl)-1H-pyrrole-2-carboxamide]: the EC50 is 17300 nM in assay [1] and more than 25000 nM in assay [6]. Also, the IC50 was 1920 nM in assay [2] (setting [7]), 1200 nM in assay [3] (setting [8]), 19100 nM in assay [4] (setting [9]) and 1380 nM in assay [5] (setting [10]).
Regarding `CC(C)(/C=C/c1ccccc1)c1csc(NC(=O)c2cccn2Cc2ccncc2)n1` [Compound A293, N-(4-(2-methyl-4-phenylbut-3-en-2-yl)thiazol-2-yl)-1-(pyridin-4-ylmethyl)-1H-pyrrole-2-carboxamide], the EC50 in assay [1] was 11400 nM; in assay [6], more than 25000 nM. The IC50 is 632 nM in assay [2] (setting [11]), 619 nM in assay [3] (setting [12]), 3650 nM in assay [4] (setting [13]) and 367 nM in assay [5] (setting [14]).
As to `COc1ccc(C#Cc2csc(NC(=O)c3cccn3Cc3ccncc3)n2)cc1` [Compound A143], the EC50 in assay [1] was 15200 nM; in assay [6] it was more than 19800 nM. Also, the IC50 in assay [2] (setting [7]) came to 423 nM; in assay [3] (setting [8]), 617 nM; in assay [4] (setting [9]) it was 1580 nM; in assay [5] (setting [10]), 89 nM.
Take `O=C(Nc1nc(/C=C/C2CCOCC2)cs1)c1cccn1Cc1ccncc1` [Compound A153, 1-(pyridin-4-ylmethyl)-N-(4-(2-(tetrahydro-2H-pyran-4-yl)vinyl)thiazol-2-yl)-1H-pyrrole-2-carboxamide]: the EC50 in assay [1] and in assay [6] was more than 25000 nM each time. The IC50 in assay [2] (setting [7]) is 1550 nM; in assay [3] (setting [8]), 4070 nM; in assay [4] (setting [9]), more than 25000 nM; in assay [5] (setting [10]), 902 nM.
Consider `O=C(Nc1nc([C@H]2CCC(=O)N2c2ccccc2)cs1)c1cccn1Cc1ccncc1` [Compound A319], for which the EC50 in assay [1] and in assay [6] was more than 25000 nM throughout. In addition, the IC50 in assay [2] (setting [11]) turned out to be 2720 nM; in assay [3] (setting [12]) it was 1840 nM; in assay [4] (setting [13]) it was 16000 nM; in assay [5] (setting [14]), 1310 nM.
Regarding `CC(C)(OCC1CCCCC1)c1csc(NC(=O)c2cccn2Cc2ccncc2)n1` [Compound A7, N-(4-(2-(cyclohexylmethoxy)propan-2-yl)thiazol-2-yl)-1-(pyridin-4-ylmethyl)-1H-pyrrole-2-carboxamide], the results for the EC50 in assay [1] and in assay [6] were 3850 nM and more than 25000 nM, respectively. Besides, the IC50 in assay [2] (setting [7]) was 93 nM; in assay [3] (setting [8]), 71 nM; in assay [4] (setting [9]) it was 808 nM; in assay [5] (setting [10]), 58 nM.
For the molecule `C[C@]1(c2csc(NC(=O)c3cccn3Cc3ccncc3)n2)CCCN1c1ccccc1` [Compound A338], the values for the EC50 in assay [1] and in assay [6] were 14800 nM and more than 25000 nM, respectively. Further, the IC50 worked out at 264 nM in assay [2] (setting [11]), 345 nM in assay [3] (setting [12]), 1850 nM in assay [4] (setting [13]) and 205 nM in assay [5] (setting [14]).
As to `CC(C)OC(C)(C)c1csc(NC(=O)c2cccn2Cc2cc(F)nc(F)c2)n1` [Compound A36, 1-((2,6-difluoropyridin-4-yl)methyl)-N-(4-(2-isopropoxypropan-2-yl)thiazol-2-yl)-1H-pyrrole-2-carboxamide], the EC50 in assay [1] and in assay [6] was more than 25000 nM throughout. Further, the IC50 in assay [2] (setting [7]) amounted to 1140 nM; in assay [3] (setting [8]), 896 nM; in assay [4] (setting [9]), 21000 nM; in assay [5] (setting [10]), 698 nM.
